{"source": "patent US20070196514A1", "about": "“Prostate cancer treatment with glycogen synthase kinase-3beta inhibitors” (priority 2006, published 2007)", "key": {"PC-3 xenografts": {"test_system": "PC-3 xenografts", "assay": "mouse xenograft model, protocol B (palpable tumors), with in vivo BrdU labeling and TUNEL", "design": "species or system nude mice", "description": "All animal studies were conducted under an approved Institutional Animal Care and Use Committee protocol. Single cell suspensions (2×10^6 cells in 0.1 ml of RPMI1640 medium plus 10% FBS) were inoculated subcutaneously (s.c.) into the rear flanks (two sites/mouse) of 6 to 7 weeks old male nude mice (Charles River, Wilmington, Mass.). For protocol A, mice were randomly divided into two groups (5 animals each). On next day after inoculation, one group of animals received i.p. injection of LiCl at a daily dose of 2 mg/kg body weight. LiCl was dissolved in PBS. The control groups of animals received PBS alone in the same volume. Xenograft development and growth were monitored for 8 weeks. The tumor dimensions were measured twice a week. The tumor volume was calculated by the formula of L×W×H×0.5236 (Miyake 2001). At the end of treatment, xenograft tumors were extirpated, and the final tumor size and weight, as well as animal weight were measured. For protocol B, treatment began until tumor became palpable or 50 mm^3 in size, and LiCl or PBS was injected (5 animals each group) as above for a two-week course. Tumor size and weight were measured at the end of treatment. For BrdU in vivo labeling, the animals were injected i.p. with 0.5 ml of a 10-mM BrdU solution (Invitrogen) 2 hours before sacrifice. For experiments involving LNCaP-BclxL SB216763 subline cells (Liao 2005) were inoculated as above, and SB216763 treatment was started two weeks later when palpable xenografts were established. […] Tumor growth was monitored as discussed herein. […]\nIn protocol B, animals were treated with LiCl at 2 mg/kg for a two-week course when PC-3 xenografts were palpable or about […] in size. Tumor weight was measured at the endpoint of treatment and was compared between LiCl-treated and PBS control groups.\nNext, the DNA synthesis associated with LiCl-induced tumor suppression in vivo was also investigated. DNA synthesis was measured by an in vivo BrdU incorporation assay. Meanwhile, apoptotic events, if any, were detected using TUNEL assay. […]"}, "LNCaP cells": {"test_system": "LNCaP cells", "assay": "cell cycle analysis by flow cytometry (PI)", "format": "cell-based, human", "conditions": "serum-starved 24 hours then full media with LiCl up to 24 hours", "description": "For cell cycle analysis, serum-starved cells were left untreated or treated with different inhibitors for various time periods as indicated in the figures. After trypsinization, the cells were fixed and stained with propidium iodide (“PI”). Cell cycle distribution of PI-labeled cells was analyzed on a fluorescence activated cell sorter (Model EPICS XL-MCL, Beckman-Coulter Co., Fullerton, Calif.) as described previously (Miyake 2001).\nLNCaP cells were first serum-starved for 24 hours, and were then released by returning them to full culture media in the presence or absence of LiCl for up to 24 hours. Cell cycle distribution was analyzed by flow cytometry (“FCM”). […] When serum was added back in the culture (the control), cells re-entered into cell cycle."}}}
{"smiles": "[Cl-].[Li+]", "note": "[LiCl, Lithium chloride]", "values": [{"measurement": "TUNEL staining (apoptotic events) in xenografts, LiCl vs PBS", "setting": "PC-3 xenografts; LiCl 2 mg/kg", "result": "did not show any difference"}, {"measurement": "BrdU labeling in xenografts vs PBS control", "setting": "PC-3 xenografts; in vivo BrdU incorporation, BrdU injected two hours before sacrifice", "result": "significantly reduced"}, {"measurement": "tumor weight vs PBS control", "setting": "PC-3 xenografts; protocol B, LiCl 2 mg/kg, two-week course on palpable xenografts", "result": "significantly reduced"}, {"measurement": "portion of S-phase cells", "setting": "LNCaP cells", "result": "dramatically increased"}]}
